This passage reports pest or weed control, CL rating and BAW rating results from patent US20230077362A1 (CORTEVA AGRISCIENCE LLC, priority 2019, published 2023).

Assay [1] relates to Cabbage Looper (Trichoplusia ni) ("CL"), second instar larvae. Description: Bioassay on cabbage looper (CL), 128-well diet tray assay. The class given is in vivo. Particulars: for pest or weed control at 50 µg/cm2: Trichoplusia ni, read-out: CL rating; for CL rating: Table ABC, species CL, C = not tested, D = no activity noticed. The essentials: (§1)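 Read-out: percent larval mortality per well, averaged over 8 wells. Incubation 25° C., 14:10 L:D photoperiod, 5–7 days, trays sealed with clear adhesive cover.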

Assay [2] relates to Beet Armyworm (Spodoptera exigua) ("BAW"), second instar larvae. Description: Bioassay on beet armyworm (BAW), 128-well diet tray assay. The class given is in vivo. Particulars: for pest or weed control at 50 µg/cm2: Spodoptera exigua, read-out: BAW rating; for BAW rating: Table ABC, species BAW, C = not tested, D = no activity noticed. The essentials:
as §1

Each structure is given as a SMILES string.

Take `COC(C)c1ccc(C)cc1N1C(=O)CS/C1=N\C(=O)Nc1ccc(-c2cn(-c3ccc(C(F)(F)F)cc3)cn2)cc1C` (stereo not shown) [Compound J525, (Z)-1-(3-(2-(1-Methoxyethyl)-5-methylphenyl)-4-oxothiazolidin-2-ylidene)-3-(2-methyl-4-(1-(4-(trifluoromethyl)phenyl)-1H-imidazol-4-yl)phenyl)urea]: the pest or weed control at 50 µg/cm2 in assay [1] and in assay [2] was 50 to 100% each time.
Take `Cc1ccc(COCC(F)(F)F)c(N2C(=O)CS/C2=N\C(=O)Nc2ccc(-c3cn(-c4ccc(C(F)(F)F)cc4)cn3)cc2C)c1` [Compound J526, (Z)-1-(3-(5-Methyl-2-((2,2,2-trifluoroethoxy)methyl)phenyl)-4-oxothiazolidin-2-ylidene)-3-(2-methyl-4-(1-(4-(trifluoromethyl)phenyl)-1H-imidazol-4-yl)phenyl)urea]: the pest or weed control at 50 µg/cm2 in assay [1] and in assay [2] was 50 to 100% each time.
For `Cc1ccc(OCCC(F)(F)F)c(N2C(=O)CS/C2=N\C(=O)Nc2ccc(-c3cn(-c4ccc(C(F)(F)F)cc4)cn3)cc2C)c1` [Compound J527, (Z)-1-(3-(5-Methyl-2-(3,3,3-trifluoropropoxy)phenyl)-4-oxothiazolidin-2-ylidene)-3-(2-methyl-4-(1-(4-(trifluoromethyl)phenyl)-1H-imidazol-4-yl)phenyl)urea], the pest or weed control at 50 µg/cm2 in assay [1] and in assay [2] was 50 to 100% throughout.
As to `CC(C)c1ccc(N(C)C)cc1N1C(=O)CS/C1=N\C(=O)Nc1ccc(-c2cn(-c3ccc(OC(F)(F)F)cc3)cn2)cc1` [Compound J529, (Z)-1-(3-(5-(Dimethylamino)-2-isopropylphenyl)-4-oxothiazolidin-2-ylidene)-3-(4-(1-(4-(trifluoromethoxy)phenyl)-1H-imidazol-4-yl)phenyl)urea], the pest or weed control at 50 µg/cm2 in assay [1] and in assay [2] was 50 to 100% throughout.
As for `Cc1ccc(COCC(C)(F)F)c(N2C(=O)CS/C2=N\C(=O)Nc2ccc(-c3ncn(-c4ccc(OC(F)(F)F)cc4)n3)cc2C)c1` [Compound J534], the CL rating entry in assay [1] is given as “A (50-100)”. Further, the BAW rating result in assay [2] is reported as “A (50-100)”.
Turning to `Cc1ccc(COCC(C)(F)F)c(N2C(=O)CS/C2=N\C(=O)Nc2ccc(-c3ncn(-c4ccc(OC(F)(F)F)cc4)n3)cc2F)c1` [Compound J535], the CL rating entry in assay [1] is “A (50-100)”. The BAW rating result in assay [2] is reported as “A (50-100)”.
`CCCOc1ccc(C)cc1N1C(=O)CS/C1=N\C(=O)Nc1ccc(-c2ncn(-c3ccc(S(F)(F)(F)(F)F)cc3)n2)cc1F` [Compound J541]: the pest or weed control at 50 µg/cm2 in assay [1] and in assay [2] was 50 to 100% throughout.
For `Cc1ccc(COCCC(F)(F)F)c(N2C(=O)CS/C2=N\C(=O)Nc2ccc(-c3ncn(-c4ccc(OC(F)(F)F)cc4)n3)cc2F)c1` [Compound J543], in assay [1], the CL rating result was “A (50-100)”. For the same compound, the BAW rating result in assay [2] is listed as “A (50-100)”.
As for `CCCOCc1ccc(C)cc1N1C(=O)CS/C1=N\C(=O)Nc1ccc(-c2ncn(-c3ccc(S(F)(F)(F)(F)F)cc3)n2)cc1F` [Compound J544], the CL rating result in assay [1] is “A (50-100)”. Besides, the BAW rating result in assay [2] is on record as “A (50-100)”.
For `CCCOCc1ccc(C)cc1N1C(=O)CS/C1=N\C(=O)Nc1ccc(-c2ncn(-c3ccc(OC(F)(F)F)cc3)n2)cc1C` [Compound J546], the CL rating result in assay [1] is given as “A (50-100)”. Further, in assay [2], the BAW rating entry is listed as “A (50-100)”.
Take `Cc1ccc(COCCC(F)(F)F)c(N2C(=O)CS/C2=N\C(=O)Nc2ccc(-c3ncn(-c4ccc(C(F)(F)F)cc4)n3)cc2F)c1` [Compound J547]: the CL rating result in assay [1] is recorded as “A (50-100)”. For the same compound, the BAW rating entry in assay [2] is given as “A (50-100)”.
As for `CCOCc1ccc(C)cc1N1C(=O)CS/C1=N\C(=O)Nc1ccc(-c2ncn(-c3ccc(S(F)(F)(F)(F)F)cc3)n2)cc1C` [Compound J548], the CL rating entry in assay [1] is “A (50-100)”. Moreover, in assay [2], the BAW rating result is reported as “A (50-100)”.
As for `Cc1ccc(COCC(F)(F)F)c(N2C(=O)CS/C2=N\C(=O)Nc2ccc(-c3ncn(-c4ccc(S(F)(F)(F)(F)F)cc4)n3)cc2C)c1` [Compound J549], the CL rating entry in assay [1] was “A (50-100)”. Also, the BAW rating entry in assay [2] was “A (50-100)”.
With `Cc1ccc(COCC(Cl)(Cl)Cl)c(N2C(=O)CS/C2=N\C(=O)Nc2ccc(-c3ncn(-c4ccc(C(F)(F)F)cc4)n3)cc2F)c1` [Compound J550], in assay [1], the CL rating result is given as “A (50-100)”. In assay [2], the BAW rating result is listed as “A (50-100)”.
As to `Cc1ccc(COCCF)c(N2C(=O)CS/C2=N\C(=O)Nc2ccc(-c3ncn(-c4ccc(OC(F)(F)F)cc4)n3)cc2F)c1` [Compound J551], the CL rating result in assay [1] is given as “A (50-100)”. Further, the BAW rating result in assay [2] was “A (50-100)”.
`Cc1ccc(COCCF)c(N2C(=O)CS/C2=N\C(=O)Nc2ccc(-c3ncn(-c4ccc(S(F)(F)(F)(F)F)cc4)n3)cc2F)c1` [Compound J552]: the pest or weed control at 50 µg/cm2 in assay [1] and in assay [2] was 50 to 100% each time.
For the compound `Cc1ccc(COCC(Cl)Cl)c(N2C(=O)CS/C2=N\C(=O)Nc2ccc(-c3ncn(-c4ccc(OC(F)(F)F)cc4)n3)cc2F)c1` [Compound J553], in assay [1], the CL rating entry was “A (50-100)”. Besides, in assay [2], the BAW rating entry was “A (50-100)”.
`Cc1ccc(COCC(Cl)Cl)c(N2C(=O)CS/C2=N\C(=O)Nc2ccc(-c3ncn(-c4ccc(S(F)(F)(F)(F)F)cc4)n3)cc2F)c1` [Compound J554]: in assay [1], the CL rating result is reported as “A (50-100)”. In addition, in assay [2], the BAW rating entry was “A (50-100)”.
With `Cc1ccc(COCC(Cl)Cl)c(N2C(=O)CS/C2=N\C(=O)Nc2ccc(-c3ncn(-c4ccc(OC(F)(F)F)cc4)n3)cc2C)c1` [Compound J555], the pest or weed control at 50 µg/cm2 in assay [1] and in assay [2] was 50 to 100% throughout.
In the case of `Cc1ccc(COCC(Cl)Cl)c(N2C(=O)CS/C2=N\C(=O)Nc2ccc(-c3ncn(-c4ccc(S(F)(F)(F)(F)F)cc4)n3)cc2C)c1` [Compound J556], in assay [1], the CL rating entry is “A (50-100)”. The BAW rating result in assay [2] was “A (50-100)”.
For the compound `Cc1ccc(COCCF)c(N2C(=O)CS/C2=N\C(=O)Nc2ccc(-c3ncn(-c4ccc(S(F)(F)(F)(F)F)cc4)n3)cc2C)c1` [Compound J557], the CL rating entry in assay [1] is listed as “A (50-100)”. Moreover, the BAW rating result in assay [2] is recorded as “A (50-100)”.
Turning to `Cc1ccc(COCCF)c(N2C(=O)CS/C2=N\C(=O)Nc2ccc(-c3ncn(-c4ccc(OC(F)(F)F)cc4)n3)cc2C)c1` [Compound J558], the CL rating entry in assay [1] is reported as “A (50-100)”. Also, the BAW rating entry in assay [2] is “A (50-100)”.
As for `Cc1ccc(COCC(Cl)Cl)c(N2C(=O)CS/C2=N\C(=O)Nc2ccc(-c3ncn(-c4ccc(C(F)(F)F)cc4)n3)cc2F)c1` [Compound J559], the CL rating result in assay [1] is on record as “A (50-100)”. In assay [2], the BAW rating result is reported as “A (50-100)”.
For `COc1cc(COCC(F)(F)F)c(N2C(=O)CS/C2=N\C(=O)Nc2ccc(-c3ncn(-c4ccc(OC(F)(F)F)cc4)n3)cc2F)cc1OC` [Compound J560], in assay [1], the CL rating entry is “A (50-100)”. In assay [2], the BAW rating entry is reported as “A (50-100)”.
For `COc1cc(COCC(F)(F)F)c(N2C(=O)CS/C2=N\C(=O)Nc2ccc(-c3ncn(-c4ccc(S(F)(F)(F)(F)F)cc4)n3)cc2F)cc1OC` [Compound J561], the CL rating entry in assay [1] is “A (50-100)”. Moreover, the BAW rating entry in assay [2] is given as “A (50-100)”.
Regarding `Cc1ccc(Cc2ccccc2)c(N2C(=O)CS/C2=N\C(=O)Nc2ccc(-c3ncn(-c4ccc(C(F)(F)F)cc4)n3)cc2F)c1` [Compound J562, (Z)-1-(3-(2-Benzyl-5-methylphenyl)-4-oxothiazolidin-2-ylidene)-3-(2-fluoro-4-(1-(4-(trifluoromethyl)phenyl)-1H-1,2,4-triazol-3-yl)phenyl)urea], the pest or weed control at 50 µg/cm2 in assay [1] and in assay [2] was 50 to 100% throughout.
On to `Cc1ccc(Cc2ccccc2)c(N2C(=O)CS/C2=N\C(=O)Nc2ccc(-c3ncn(-c4ccc(S(F)(F)(F)(F)F)cc4)n3)cc2F)c1` [Compound J563, (Z)-1-(3-(2-Benzyl-5-methylphenyl)-4-oxothiazolidin-2-ylidene)-3-(2-fluoro-4-(1-(4-(pentafluoro-λ^6-sulfaneyl)phenyl)-1H-1,2,4-triazol-3-yl)phenyl)urea], for which the pest or weed control at 50 µg/cm2 in assay [1] and in assay [2] was 50 to 100% in each case.
Turning to `COc1ccc(COCC(F)(F)F)c(N2C(=O)CS/C2=N\C(=O)Nc2ccc(-c3ncn(-c4ccc(OC(F)(F)F)cc4)n3)cc2F)c1` [Compound J564], the CL rating result in assay [1] was “A (50-100)”. Also, the BAW rating result in assay [2] is “A (50-100)”.
With `COc1ccc(COCC(F)(F)F)c(N2C(=O)CS/C2=N\C(=O)Nc2ccc(-c3ncn(-c4ccc(S(F)(F)(F)(F)F)cc4)n3)cc2F)c1` [Compound J565], in assay [1], the CL rating result is reported as “A (50-100)”. In assay [2], the BAW rating result is reported as “A (50-100)”.
For the compound `Cc1cccc(N2C(=O)CS/C2=N\C(=O)Nc2ccc(-c3ncn(-c4ccc(OC(F)(F)F)cc4)n3)cc2F)c1COCC(F)(F)F` [Compound J566], the CL rating result in assay [1] is given as “A (50-100)”. The BAW rating result in assay [2] is listed as “A (50-100)”.
For `Cc1cccc(N2C(=O)CS/C2=N\C(=O)Nc2ccc(-c3ncn(-c4ccc(S(F)(F)(F)(F)F)cc4)n3)cc2F)c1COCC(F)(F)F` [Compound J567], the CL rating result in assay [1] was “A (50-100)”. The BAW rating entry in assay [2] is on record as “A (50-100)”.
As for `Cc1ccc(COCc2cccc(F)c2)c(N2C(=O)CS/C2=N\C(=O)Nc2ccc(-c3ncn(-c4ccc(OC(F)(F)F)cc4)n3)cc2F)c1` [Compound J568, (Z)-1-(2-fluoro-4-(1-(4-(trifluoromethoxy)phenyl)-1H-1,2,4-triazol-3-yl)phenyl)-3-(3-(2-(((3-fluorobenzyl)oxy)methyl)-5-methylphenyl)-4-oxothiazolidin-2-ylidene)urea], the pest or weed control at 50 µg/cm2 in assay [1] and in assay [2] was 50 to 100% each time.
